Target: T1, NEDD8-activating enzyme (NAE), Uba3 subunit (Homo sapiens, UniProt Q8TBC4)
T1 construct: His-APP-BP1, His-Uba3 (kit enzymes); with APPBP1 (NAE1); Ubc12 and NEDD8 present in the assay
Experiment: in vitro NEDD8 conjugation assay with purified E1 (APPBP1/Uba3), Ubc12 and NEDD8; non-reducing western blot of Ubc12-NEDD8
Assay type: biochemical

T1 sequence (Q8TBC4 2-463): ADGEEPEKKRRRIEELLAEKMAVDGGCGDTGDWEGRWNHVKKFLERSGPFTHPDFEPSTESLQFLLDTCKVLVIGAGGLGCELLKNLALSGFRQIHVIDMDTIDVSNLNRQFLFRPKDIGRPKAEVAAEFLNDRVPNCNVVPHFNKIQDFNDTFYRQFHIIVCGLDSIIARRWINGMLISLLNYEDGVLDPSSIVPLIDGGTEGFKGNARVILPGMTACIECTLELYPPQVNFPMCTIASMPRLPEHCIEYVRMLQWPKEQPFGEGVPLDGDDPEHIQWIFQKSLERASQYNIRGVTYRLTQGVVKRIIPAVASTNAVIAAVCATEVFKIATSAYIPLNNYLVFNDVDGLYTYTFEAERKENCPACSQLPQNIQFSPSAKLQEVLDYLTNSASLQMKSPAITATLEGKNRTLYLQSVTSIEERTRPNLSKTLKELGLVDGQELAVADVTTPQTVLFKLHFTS
T1 sequence (Q13564 2-534 partner): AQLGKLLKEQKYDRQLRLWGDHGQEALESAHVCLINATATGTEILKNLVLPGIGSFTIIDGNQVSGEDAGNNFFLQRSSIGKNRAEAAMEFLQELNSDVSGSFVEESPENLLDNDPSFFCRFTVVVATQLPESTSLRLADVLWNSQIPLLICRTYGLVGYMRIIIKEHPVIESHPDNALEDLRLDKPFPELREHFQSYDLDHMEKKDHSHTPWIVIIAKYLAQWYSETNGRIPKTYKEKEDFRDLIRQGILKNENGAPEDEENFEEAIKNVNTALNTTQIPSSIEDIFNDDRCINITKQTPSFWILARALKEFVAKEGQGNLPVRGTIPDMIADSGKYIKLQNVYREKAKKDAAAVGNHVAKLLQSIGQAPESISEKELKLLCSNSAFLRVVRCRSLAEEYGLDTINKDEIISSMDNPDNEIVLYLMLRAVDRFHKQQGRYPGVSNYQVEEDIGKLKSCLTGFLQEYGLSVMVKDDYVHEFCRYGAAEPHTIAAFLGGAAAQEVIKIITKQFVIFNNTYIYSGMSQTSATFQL
T1 sequence (P61081 whole entry partner): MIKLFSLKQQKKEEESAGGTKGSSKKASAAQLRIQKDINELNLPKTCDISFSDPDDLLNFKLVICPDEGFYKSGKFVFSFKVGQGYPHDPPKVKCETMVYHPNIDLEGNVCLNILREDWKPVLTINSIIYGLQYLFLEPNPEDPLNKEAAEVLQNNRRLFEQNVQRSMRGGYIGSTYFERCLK
T1 sequence (Q15843 1-76 partner): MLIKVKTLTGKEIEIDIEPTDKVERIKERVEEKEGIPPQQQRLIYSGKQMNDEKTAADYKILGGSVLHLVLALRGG

IC50: ~5 µM
SMILES: COc1ccc(/C=C/C(=O)c2c(O)cc(OC)cc2OC)cc1 [FKA, flavokawain A]
